# Experiments:
# [1] = system: A549 cells; test: Cell viability assay (CCK-8), A549; assay type: cell-based; details: Homo sapiens, A549, 72 h, read-out: IC50 cell proliferation, A549, 72 h
# Method: Cell proliferation was measured using the Cell Counting Kit-8 (CCK-8, B34304, Bimake, USA). A549 (2 × 10^3/100 μL/well), PC-9 (3 × 10^3/100 μL/well) or PC-9/GR cells (3 × 10^3/100 μL/well) were plated into each well of 96-well plates (Costar, USA). […] Then, 10 μL of CCK-8 was added to each well, and cells were incubated for 1-4 h until the color of untreated controls turned to orange. The absorbance (A) was measured by a microplate reader (FLUOstar Omega-ACU, USA) at test and reference wavelengths of 450 nm. The percentage of growth was calculated as Cell viability (%) = [A (Compound +) - A (Blank) ] / [A (Compound -) - A (Blank) ] × 100%. Cell viability meant proliferation of cells. Each experiment was done at least in triplicate, and thrice independently.
# [2] = system: PC-9 cells; test: Colony formation assay, PC-9; assay type: cell-based, human; details: PC-9, as low as 0.3 μM
# [3] = system: A549 cells; test: Wound healing assay for migration; assay type: cell-based, human; details: 48 h
# Method: The motility of cells was measured by wound healing assay. Cells were seeded into 6-well plates and cultured to 90-100% confluent after 24 h. Wounds were made in each well of 6-well plates using pipette tips. […] The migration of cells was visualized under a microscope (4 ×, Nikon, Japan) and photographed in different time points (0 and 48 h).
# [4] = system: PC-9/GR cells; test: Cell apoptosis assay (Annexin V-FITC/PI flow cytometry), PC-9/GR; assay type: cell-based, human; details: 72 h
# Method: Briefly, aliquots of 2 × 10^5 cells were seeded into 6-well plates and incubated for 24 h at 37 °C. […] After trypsinization and gently washing cells once with medium, the cells were washed twice with cold PBS. The precipitation was resuspended by 400 μL of 1 × binding buffer, and then resuspended cells were transferred into new 1.5 mL EP tubes. Then 3 μL of Annexin V-FITC and 5 μL of propidium iodide were added to the resuspended cells with further incubation at room temperature for 15 min in the dark. The analysis was done on Guava easyCyte (USA) and FlowJo 7.6 software.
# [5] = system: A549 cells with STAT3 knock down / knock out; test: Cell proliferation assay in A549 cells with STAT3 knocked down (siRNA) or knocked out (CRISPR/Cas9); assay type: cell-based, human
# Description: To knockout the STAT3 gene in A549 cells using CRISPR/Cas9 system, the lentiCRISPRv2 vector (gift from Professor Junjian Wang, Sun Yat-Sen University, China) was used. An optimized guide RNA (gRNA) targeting the exon2 of STAT3 was designed in an online CRISPR design tool (http://crispor.tefor.net/). Then the guide RNA (synthesized by Sangon Biotech) inserted into lentiCRISPRv2 vector and the recombinant plasmid (sgSTAT3) was transfected and amplified in E.coli JM109. The confirmed and purified sgSTAT3 plasmid was transfected into A549 cells using lentivirus, after 48h post-transfection, cells were selected by introducing into 3 μg/mL puromycin for 2 weeks. Then the puromycin-resistant cells were planted into 96-wells plate with a density of one single cell per well and expanse to select the STAT3-konckout cells. The STAT3-konckout cells isolated from the single-colony were verified by western blotting analysis. The gRNA used to knockout STAT3 as follows,
# Cell proliferation was measured using the Cell Counting Kit-8 (CCK-8, B34304, Bimake, USA). […] The absorbance (A) was measured by a microplate reader (FLUOstar Omega-ACU, USA) at test and reference wavelengths of 450 nm. The percentage of growth was calculated as Cell viability (%) = [A (Compound +) - A (Blank) ] / [A (Compound -) - A (Blank) ] × 100%. […]
# [6] = system: pY705-STAT3; test: Western blot of pY705-STAT3 in A549 cells; assay type: cell-based, human
# Method: (§1) Cells or tumor tissue were lysed with RIPA buffer (Beyotime, Shanghai, China) supplemented with protease inhibitors (Beyotime, Shanghai, China) and phosphatase inhibitors (Bimake, USA). Lysates were denatured by heating for 5 min at 99 °C and loaded on 4-10% SDS-polyacrylamide gel electrophoresis. Then the proteins were transferred to polyvinylidene fluoride (PVDF) membranes (Millipore, USA). The membranes were blocked and probed with primary antibodies and secondary HPR-conjugated antibodies. At last the membranes were detected by chemiluminescence (Tanon, Shanghai, China). For co-immunoprecipitation experiments, 293T cells were plated and grew to about 80% confluency, then co-transfected with plasmids of HA-STAT3 and Flag-STAT3 using Lipofectamine 2000. After 24 h, cells were treated with different concentrations of W2014-S for following 24 h, and stimulated with IL-6 (100 ng/mL) for 1 h. Cells were lysed with IP RIPA buffer (Beyotime, Shanghai, China) supplemented with protease inhibitors (Beyotime, Shanghai, China) and phosphatase inhibitors (Bimake, America), and lysates were cultured with Anti-flag Affinity Gel (B23102, Bimake, USA) overnight at 4 ℃. The gel was washed by PBST for three times and added 1×loading buffer and denatured by heating for 5 min at 99 ℃. Then the proteins were resolved on SDS-PAGE, transferred to PVDF membranes and analysed with immunoblotting.
# [7] = system: Bcl-2, Bcl-xL and c-Myc; test: Western blot of STAT3 downstream genes in A549 and PC-9 cells; assay type: cell-based, human; details: A549 and PC-9, 0-3 μM, 24 h
# Method: as §1
# [8] = system: STAT1 and STAT5; test: Western blot of STAT1 and STAT5 activation in A549 and PC-9 cells; assay type: cell-based, human
# Method: as §1
# [9] = system: STAT3; test: STAT3-dependent dual-luciferase reporter assay in 293T cells; assay type: cell-based, human; details: 293T, 0, 0.3, 1 μM, 24 h
# Method: (§2) The STAT3-dependent luciferase reporter, pGL3-STAT3, contained seven copies of the STAT3-specific binding sequence ([…]) in the C-reactive protein gene promoter, and drove firefly luciferase expression. The new construct was confirmed by sequencing. For luciferase studies, 293T cells or A549 cells in 96-well plates were transiently co-transfected with the appropriate plasmids (10 ng TKRL as internal control vector for normalizing and 50 ng of pGL3-STAT3) using Lipofectamine 2000 (11668500, Invitrogen, Carlsbad, CA, USA) which was following the manufacturer's protocol. After 24 h, HEK-293T cells were treated with 0-1 μM W2014-S for 24 h, and stimulated with IL-6 (100 ng/mL, PeproTech) for 1 h or EGF (50 ng/mL, PeproTech) for 30 min. Subsequently, cytosolic extracts were prepared for dual-luciferase reporter assay.
# [10] = system: STAT3; test: STAT3-dependent dual-luciferase reporter assay in A549 cells; assay type: cell-based, human; details: A549, 0, 0.3, 1 μM, 24 h
# Method: as §2
# [11] = system: pY705-STAT3 and pY1068-EGFR; test: Western blot of pY705-STAT3 and pY1068-EGFR in PC-9/GR cells; assay type: cell-based, human; details: W2014-S 1 μM and/or gefitinib 2 μM, 24 h
# Method: Cells or tumor tissue were lysed with RIPA buffer (Beyotime, Shanghai, China) supplemented with protease inhibitors (Beyotime, Shanghai, China) and phosphatase inhibitors (Bimake, USA). Lysates were denatured by heating for 5 min at 99 °C and loaded on 4-10% SDS-polyacrylamide gel electrophoresis. Then the proteins were transferred to polyvinylidene fluoride (PVDF) membranes (Millipore, USA). The membranes were blocked and probed with primary antibodies and secondary HPR-conjugated antibodies. At last the membranes were detected by chemiluminescence (Tanon, Shanghai, China). […] Cells were lysed with IP RIPA buffer (Beyotime, Shanghai, China) supplemented with protease inhibitors (Beyotime, Shanghai, China) and phosphatase inhibitors (Bimake, America), and lysates were cultured with Anti-flag Affinity Gel (B23102, Bimake, USA) overnight at 4 ℃. The gel was washed by PBST for three times and added 1×loading buffer and denatured by heating for 5 min at 99 ℃. Then the proteins were resolved on SDS-PAGE, transferred to PVDF membranes and analysed with immunoblotting.
# [12] = biological target: STAT3-STAT3 dimerization (Homo sapiens, UniProt P40763); test: Co-immunoprecipitation of HA-STAT3 and Flag-STAT3 in A549 cells; assay type: cell-based; set-up: expressed in transfected cells; host or cells: A549; details: A549, 0, 0.3, 1 μM, 24 h
# Sequence of STAT3-STAT3 dimerization (P40763 whole entry): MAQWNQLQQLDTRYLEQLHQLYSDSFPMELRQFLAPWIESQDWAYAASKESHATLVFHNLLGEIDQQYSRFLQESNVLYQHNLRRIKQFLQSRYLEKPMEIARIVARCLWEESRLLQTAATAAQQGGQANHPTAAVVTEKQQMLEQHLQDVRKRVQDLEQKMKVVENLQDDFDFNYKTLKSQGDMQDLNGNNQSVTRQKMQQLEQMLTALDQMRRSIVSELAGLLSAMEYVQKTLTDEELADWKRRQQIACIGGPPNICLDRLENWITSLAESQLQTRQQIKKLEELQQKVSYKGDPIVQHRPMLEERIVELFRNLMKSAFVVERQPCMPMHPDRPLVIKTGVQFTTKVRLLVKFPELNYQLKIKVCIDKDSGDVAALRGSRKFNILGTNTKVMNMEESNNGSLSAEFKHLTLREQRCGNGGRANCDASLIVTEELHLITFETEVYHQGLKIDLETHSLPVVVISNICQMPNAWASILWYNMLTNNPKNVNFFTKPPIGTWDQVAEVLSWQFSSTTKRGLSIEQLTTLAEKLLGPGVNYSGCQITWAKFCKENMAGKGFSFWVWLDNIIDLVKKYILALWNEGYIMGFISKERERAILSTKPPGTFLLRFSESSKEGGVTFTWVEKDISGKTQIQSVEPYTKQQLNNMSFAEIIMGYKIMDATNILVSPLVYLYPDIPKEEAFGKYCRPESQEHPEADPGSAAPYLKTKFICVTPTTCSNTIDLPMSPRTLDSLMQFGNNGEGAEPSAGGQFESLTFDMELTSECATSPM
# Method: as §1
# [13] = gefitinib 2 μM and/or W2014-S 1 μM
structure (smiles),measurement,setting,value
C[C@H](Oc1ccc(-c2nc3nc(C4=CCN(C(=O)OC(C)(C)C)CC4)ccc3[nH]2)cc1)c1ccccc1 [W2014-S],IC50,[1],890 nM
same,colony formation,[2],significantly suppressed the colony formation
same,cell migration,[3],remarkably inhibited the migration
same,effect on gefitinib-induced apoptosis,[4]; W2014-S 1 μM + gefitinib 2 μM,significantly enhanced gefitinib-induced apoptosis
same,Q1,[4]; [13],0.164%
same,Q2,[4]; [13],4.50%
same,Q3,[4]; [13],3.47%
same,Q4,[4]; [13],91.9%
same,anti-cancer activities in STAT3 knocked out cells,"[5]; A549, Crispr/cas9",significantly attenuated
same,anti-cancer activities in STAT3 knocked down cells,"[5]; A549, siRNA interference",significantly attenuated
same,phosphorylation level of STAT3,"[6]; A549, 0, 1, 3 and 5 μM, 24 h","inhibit the phosphorylation level of STAT3 in a dose dependent manner, and more potent than W2014-R"
same,"phosphorylation of STAT3 at Y705, time course","[6]; A549, 1 μM, 0-24 h",inhibited after 1 h treatment
same,"expression of STAT3 downstream genes Bcl-2, Bcl-xL and c-Myc",[7],inhibited by W2014-S dose-dependently
same,STAT1 and STAT5 activation,[8],no obvious effect
same,STAT3-dependent luciferase reporter activity induced by IL-6,[9],dose-dependently inhibited
same,STAT3 transcriptional activity (luciferase reporter),[10],inhibited
same,level of pY705-STAT3 and pY1068-EGFR,[11],reduced the phosphorylation of STAT3
same,dimerization of HA-STAT3 and Flag-STAT3,[12],inhibited by W2014-S in a dosage-dependent manner

# — article PMC7738869, “A novel STAT3 inhibitor W2014-S regresses human non-small cell lung cancer xenografts and sensitizes EGFR-TKI acquired resistance” (Theranostics, 2021)
